Reference: PMC4005661 (2014)

Test system: c-myc (DNA, G4) TGAGGGTGGGTAGGGTGGGTAA
Test: fluorescence light-up, plate reader
Conditions: 50 mM K+ (KCl); 50 mM Tris/HCl pH 7.5, room temperature; 1 µM strand, 0.5 µM ThT

fluorescence fold increase: 14 fold
SMILES: Cc1ccc2c(c1)sc(-c1ccc(N(C)C)cc1)[n+]2C
